Measured values published in PMC12266748, “A Xanthine Derivative With Novel Heat Shock Protein 90‐Alpha Inhibitory and Senolytic Properties” (Aging Cell, 2025).
Like-named read-outs stand apart in the source and are kept apart here.

Legend:
MCF7 cells = assay: Annexin V staining of senescent MCF7 (Incucyte); type: cell-based, Homo sapiens; conditions: Tamoxifen-induced senescent MCF7, K5 10 μM, after 24 h, over 96 h
Protocol: Senescent MCF7 cells were treated with K5 and Incucyte Annexin V NIR Dye (Sartorius). Cells were monitored using the Incucyte live‐cell Analysis system (Sartorius). Images were acquired using the phase microscopy EVOS XL Core at 10× magnification and analyzed using the ImageJ software.
Annexin V staining. MCF7 were plated 24 h before the treatment with 4-Hydroxytamoxifen (TAM) 10 μM for 96 h to induce the senescence described by (Lee et al. 2014). Control cultures were treated with equal volumes of 75% ethanol as the vehicle. Then, cells were washed and treated with the senolytic drug K5 10 µM and DMSO as solvent control for another 96 h and with the Incucyte Annexin V NIR Dye (1:200, Sartorius). Cells were monitored using the Incucyte live-cell Analysis system (Sartorius). The images were acquired using the phase microscopy EVOS XL Core at 10X magnification and analyzed using the ImageJ software. The mean signal intensity was then normalized for the total number of cells.

[1] = test system: Mouse ear fibroblasts (MearF); assay: MTT viability of Doxorubicin-induced senescent and non-senescent murine ear fibroblasts; type: cell-based, C57BL/6J mice; conditions: for EC50: Mus musculus, Fibroblast
Excerpt: (§1) IMR90 and WI38 lung fibroblasts were purchased from ECACC‐Merck. Human bone marrow (BM)‐derived mesenchymal stromal cells (MSCs) were purchased from Lonza. Human umbilical vein endothelial cells (HUVECs) are primary cells obtained from a pool of donors purchased from Clonetics (Lonza). Murine ear fibroblasts (MearFs) were obtained from C57BL/6J mice maintained in the INRCA “Specific Pathogen Free” (SPF) animal facility. MCF7 breast cancer cells were purchased from ATCC. For dose–response curves, IMR90 and WI38 were induced to senescence through replicative passages; MSCs, HUVECs, and MearFs senescence was induced with Doxorubicin; MCF7 senescence was induced with 4‐Hydroxytamoxifen (Lee et al. [2014]). The EC50 was calculated using GraphPad Prism 10 software. All treatment specifications are reported in the extended section.
(§2) Cell viability was determined using an MTT assay. Absorbance was measured using a NB‐12‐0035 Microplate Reader (NeoBiotech Co.). Data are expressed as a percentage of viability compared with untreated cells.
Murine ear fibroblasts (MearFs) were obtained from C57BL/6J mice maintained in the INRCA "Specific Pathogen Free" (SPF) animal facility. The ear biopsies (2 mm radius) were obtained with a dedicated puncher, and cells recovered as previously described (Malavolta et al. 2022). Cells were seeded at a density of 5000/cm^2 in T75 flasks (Corning Costar, Sigma Aldrich, St. Louis, MO, USA) and maintained at 37°C in a 95% humidified incubator with 5% CO2. Culture was carried out in RPMI (Euroclone, Milano, Italy) supplemented with 10% Fetal Calf Serum (FCS, Sigma-Aldrich, St. Louis, MO, USA), 2mM L-Glutamine, 100 U/mL penicillin and […] streptomycin (all from Sigma- Aldrich, St. Louis, MO, USA). At approximately 80% confluence, the cells were detached from the plate by incubation with trypsin-EDTA (Sigma-Aldrich, St. Louis, MO, USA) for 5 min at 37 °C and re-plated. For Doxorubicin-induced senescence, cells were seeded in a 96-well plate at a 5000 cells/cm2 density. MSC cells were treated with 100 nM Doxorubicin (DOX) for 24 h and then maintained with medium for 4 days; HUVECs were treated with 50 nM DOX for 24 h and then maintained with medium for 4 days. MearFs were induced to senescence by continuous exposure (5 days) to 75 nM DOX. […]
(§3) Cell viability assay. Cell viability has been determined with MTT (3-(4,5-dimethylthiazol-2-yl)-2, 5-diphenyltetrazolium bromide) assay. […] Insoluble formazan salts produced were solubilized with DMSO incubation, and then absorbance was measured at 540 nm using a microplate reader (NB-12-0035 Microplate Reader, NeoBiotech Co., Seoul, Republic of Korea). Data are expressed as a percentage of viability compared with untreated cells (the control group has been considered 100% of viability).

Drosophila melanogaster = Drosophila melanogaster gene expression analysis (qRT-PCR); type: in vivo; conditions: K5 10 μg/mL
Protocol: Total RNA from Drosophila melanogaster was isolated using a TripleXtractor reagent kit (Grisp Research Solution, Porto, Portugal). Gene expression of Dacapo (Dap), Unpaired 2 (Upd2), Unpaired 3 (Upd3), and Glyceraldehyde‐3‐phosphate dehydrogenase 1 (Gapdh1) was analyzed by qRT‐PCR. Details are reported in the extended methods.

WI38 cells = assay: SA-β-galactosidase colorimetric assay on senescent WI38; type: cell-based, Homo sapiens
Protocol: Previously treated cells were fixed according to the protocols established by the supplier (Cell Signaling). The images were acquired using an optical microscope (Leica) with 5× and 10× magnification (MAG) or the phase microscopy EVOS XL Core at 10× MAG and analyzed using the ImageJ software. The mean signal intensity was then normalized for the total number of cells.
β-galactosidase colorimetric assay. For cell cultures: Previously treated cells were fixed with the fixative solution for 10 min at RT according to the protocols established by the supplier (Senescence β-Galactosidase Staining Kit, #9860S, Cell Signaling, Danvers, MA, USA) Cells were then incubated with the substrate, X-gal, in a solution at pH 6, at 37°C, overnight (16 h) (Itahana et al. 2007). The images were acquired using an optical microscope (Leica, Wetzlar, Germany) with 5 and 10X magnification or the phase microscopy EVOS XL Core at 10X magnification. The images were analyzed using the ImageJ software, quantifying the colorimetric signal emitted by each cell. The mean signal intensity was then normalized for the total number of cells.

[2] = test system: Human mesenchymal stem cells (MSCs); assay: MTT viability of Doxorubicin-induced senescent and non-senescent MSCs; type: cell-based; conditions: for EC50: Homo sapiens, Mesenchymal stem cells, MTT
Excerpt: as §1, §2
Human bone marrow (BM)-derived mesenchymal stromal cells (MSCs) were purchased from Lonza (Allendale, NJ, USA) and cultured in α-MEM (Euroclone, Milano, Italy), with 10% fetal bovine serum (FBS, Lonza, Stein, Switzerland), 100 U/mL penicillin, […] streptomycin and 2 mM L-glutamine. Cells were seeded at a density of 5000/cm^2 and maintained at 37°C in a humidified atmosphere with 5% CO2. The culture medium was changed at 48 h intervals, and cells were trypsinized when almost 80% were confluent using 0.25% trypsin-EDTA (Euroclone, Milano, Italy). […]
as §3

Compound: Cc1ccccc1-n1c(=O)n(Cc2ccccc2)c(=O)c2[nH]cnc21 [Compound K5, 1-benzyl-3-(2-methylphenyl)-7H-purine-2,6-dione]
- Annexin V signal (MCF7 cells): significant and stable increase
- Senolytic evidence (no, partly/yes) ([1]; DNA damage (Doxorubicin)): No
- difference in vitality, DOXO-induced senescent vs non-senescent proliferating cells ([1]; MTT): no discernible difference
- EC50 ([1]; DNA damage (Doxorubicin), MTT, read-out: EC50 senescent cells): > 500 µM
- EC50 ([1]; MTT, read-out: EC50 proliferating cells): > 500 µM
- Dap relative expression vs controls (Drosophila melanogaster): no significant difference
- Upd2 relative expression vs controls (Drosophila melanogaster; p < 0.05): significantly reduced
- Upd3 relative expression vs controls (Drosophila melanogaster; p < 0.05): significantly reduced
- reduced SA-β-gal+ cells (WI38 cells): 10%
- Senolytic evidence (no, partly/yes) ([2]; DNA damage (Doxorubicin)): Partly
- EC50 ([2]; DNA damage (Doxorubicin), read-out: EC50 senescent cells): > 200 µM
- EC50 ([2]; read-out: EC50 proliferating cells): > 500 µM
